According to US20260215426A1, “HERBICIDAL COMPOSITIONS” (SYNGENTA CROP PROTECTION AG, priority 2022, published 2026):

Assays:
Assay type in all cases: in vivo
[1] = system: Lolium perenne (LOLPE); test: Post-emergence glasshouse efficacy against Lolium perenne; conditions: 14 days
Text: (§1) When active ingredients are combined, the activity to be expected (E) for any given active ingredient combination obeys the so-called Colby Formula and can be calculated as follows (Colby, S. R., Calculating synergistic and antagonistic responses of herbicide combination, Weeds, Vol. 15, pages 20-22; 1967): • ppm=milligrams of active ingredient (a.i.) per liter • X=% action by first active ingredient using p ppm of the active ingredient • Y=% action by second active ingredient sing q ppm of the active ingredient.
(§2) According to Colby, the expected action of active ingredients A+B using p+q ppm of active ingredient is represented by the following formula: […]
(§3) If the action actually observed (O) is greater than the expected action E then the action of the combination is super-additive, i.e. there is a synergistic effect. In mathematical terms, synergism corresponds to a positive value for the difference of (O-E). In the case of purely complementary addition of activities (expected activity), said difference (O-E) is zero. A negative value of said difference (O-E) signals a loss of activity compared to the expected activity.
(§4) Seeds of a variety of test species are sown in standard soil in pots (Echinochloa crus-galli (ECHCG), Conyza canadensis (ERICA), Amaranthus palmeri (AMAPA), Alopecurus myosuroides (ALOMY), Lolium perenne (LOLPE), and Setaria faberi (SETFA)), and cultivated under controlled conditions in a glasshouse (at 24/16° C., day/night; 14 hours light; 65% humidity), the plants are sprayed with an aqueous spray solution derived from the dissolution of the test compound or composition in acetone and IF50 (11.12% Emulsogen EL360 TM+44.44% N-methylpyrrolidone+44.44% Dowanol DPM glycol ether) which was then diluted to the required concentration using 0.2% Genapol XO80 (CAS No. 9043-30-5) in water as the diluent. Test compounds or compositions are applied at the rates stated. The test plants are then grown in a glasshouse under controlled conditions in a glasshouse (at 24/16° C., day/night; 14 hours light; 65% humidity) and watered twice daily. After 14 days, the test is evaluated for the percentage damage caused to the plant (100=total damage to plant; 0=no damage to plant), and the result are shown below in table B1 to B6.

[2] = system: Setaria faberi (SETFA); test: Post-emergence glasshouse efficacy against Setaria faberi; conditions: 14 days, alone 3.75 g/Ha
Text: as §1, §2
as §3, with “activity. […]” for “activity.”

[3] = system: Amaranthus palmeri (AMAPA); test: Post-emergence glasshouse efficacy against Amaranthus palmeri; conditions: 7-8 true leaves, 14 days
Text: as §1, §2, §3, §4

[4] = system: Alopecurus myosuroides (ALOMY); test: Post-emergence glasshouse efficacy against Alopecurus myosuroides; conditions: 14 days
Text: as §1, §2, §3, §4

[5] = system: Conyza canadensis (ERICA); test: Post-emergence glasshouse efficacy against Conyza canadensis; conditions: 8 cm rosette, 14 days
Text: as §1, §2, §3, §4

[6] = system: Echinochloa crus-galli (ECHCG); test: Post-emergence glasshouse efficacy against Echinochloa crus-galli; conditions: 4 true leaves, 14 days
Text: as §1, §2, §3, §4

Compound: CCOC(=O)C1(C)CC(c2cc(-n3c(=O)cc(C(F)(F)F)n(C)c3=O)c(F)cc2Cl)=NO1 (stereo not drawn) [Compound (Ia)]
- inhibition at 3.75 g/ha ([1]; Lolium perenne, 336 h, alone 3.75 g/Ha, read-out: Observed Activity (%)): 12.5%
- inhibition at 7.5 g/ha ([1]; Lolium perenne, 336 h, alone 7.5 g/Ha, read-out: Observed Activity (%)): 42.5%
- inhibition at 15 g/ha ([1]; Lolium perenne, 336 h, alone 15.0 g/Ha, read-out: Observed Activity (%)): 50%
- inhibition at 30 g/ha ([1]; Lolium perenne, 336 h, alone 30.0 g/Ha, read-out: Observed Activity (%)): 93.5%
- inhibition at 3.75 g/ha ([2]; Setaria faberi, 336 h, read-out: Observed Activity (%)): 67.5%
- inhibition at 0.9375 g/ha ([3]; Amaranthus palmeri, 336 h, alone 0.9375 g/Ha, read-out: Observed Activity (%)): 0%
- inhibition at 1.875 g/ha ([3]; Amaranthus palmeri, 336 h, alone 1.875 g/Ha, read-out: Observed Activity (%)): 0%
- inhibition at 3.75 g/ha ([3]; Amaranthus palmeri, 336 h, alone 3.75 g/Ha, read-out: Observed Activity (%)): 36.7%
- inhibition at 30 g/ha ([4]; Alopecurus myosuroides, 336 h, alone 30.0 g/Ha, read-out: Observed Activity (%)): 67.5%
- inhibition at 60 g/ha ([4]; Alopecurus myosuroides, 336 h, alone 60.0 g/Ha, read-out: Observed Activity (%)): 97.5%
- inhibition at 1.875 g/ha ([5]; Erigeron canadensis, 336 h, alone 1.875 g/Ha, read-out: Observed Activity (%)): 20%
- inhibition at 3.75 g/ha ([5]; Erigeron canadensis, 336 h, alone 3.75 g/Ha, read-out: Observed Activity (%)): 21.7%
- inhibition at 7.5 g/ha ([5]; Erigeron canadensis, 336 h, alone 7.5 g/Ha, read-out: Observed Activity (%)): 48.3%
- inhibition at 1.875 g/ha ([6]; Echinochloa crus-galli, 336 h, alone 1.875 g/Ha, read-out: Observed Activity (%)): 6.7%
- inhibition at 3.75 g/ha ([6]; Echinochloa crus-galli, 336 h, alone 3.75 g/Ha, read-out: Observed Activity (%)): 29.3%
- inhibition at 7.5 g/ha ([6]; Echinochloa crus-galli, 336 h, alone 7.5 g/Ha, read-out: Observed Activity (%)): 73.3%

Compound: bicyclopyrone
- Observed Activity (%) ([1]; alone 3.75 g/Ha): 0.0%
- Observed Activity (%) ([1]; alone 7.5 g/Ha): 10.0%
- Observed Activity (%) ([1]; alone 15.0 g/Ha): 25.0%
- Observed Activity (%) ([1]; alone 30.0 g/Ha): 47.5%
- Observed Activity (%) [2]: 22.5%
- Observed Activity (%) ([3]; alone 3.75 g/Ha): 0.0%
- Observed Activity (%) ([3]; alone 7.5 g/Ha): 30.0%
- Observed Activity (%) ([3]; alone 15.0 g/Ha): 45.0%
- Observed Activity (%) ([3]; alone 30.0 g/Ha): 18.3%
- Observed Activity (%) ([4]; alone 7.5 g/Ha): 47.5%
- Observed Activity (%) ([4]; alone 15.0 g/Ha): 60.0%
- Observed Activity (%) ([4]; alone 30.0 g/Ha): 60.0%
- Observed Activity (%) ([5]; alone 15.0 g/Ha): 65.0%
- Observed Activity (%) ([5]; alone 30.0 g/Ha): 71.7%
- Observed Activity (%) ([5]; alone 60.0 g/Ha): 70.0%
- Observed Activity (%) ([6]; alone 3.75 g/Ha): 21.7%
- Observed Activity (%) ([6]; alone 7.5 g/Ha): 46.7%
- Observed Activity (%) ([6]; alone 15.0 g/Ha): 56.7%
- Observed Activity (%) ([6]; alone 30.0 g/Ha): 61.7%
- Observed Activity (%) ([6]; alone 60.0 g/Ha): 63.3%
